Measurements reported in patent US10995068B2, “Synthetic sphingolipid-like molecules, drugs, methods of their synthesis and methods of treatment” (The Regents of the University of California, priority 2015, dated 2021).

How the values were obtained:
SW620 cells = assay: Phosphorylation in intact cells by UPLC-MS/MS, SW620; assay type: in vitro ADME, human; details: 10 μM, 16 h incubation, percent of total compound recovered by UPLC-MS/MS
Method: Mass spectrometric quantification: One million PC3 or 5 million SW620 cells in one well of a 6 well plate are treated with 10 μM FTY720 or 5 for 16 h. Media (100 μl) is removed from the well and combined with 100 μl of acetonitrile. Cells are collected by scraping, pelleted, and re-suspended in 100 μl of HPLC-grade water followed by the addition of 100 μl acetonitrile. Seventy-five nanograms of the compounds not being quantified (FTY720 and FTY720-P for analysis of the phosphorylation of 5, or 5 and 5-P for the analysis of FTY720/FYT720-P) is added to serve as an internal standard to allow correction for loss of compound during sample preparation. […] Insoluble material is again removed by centrifugation and the supernatant analyzed for compound content. Twenty microliters of this de-proteinated sample is analyzed by UPLC-MS/MS (Waters Micromass Quattro Premier XE) equipped with a C18 reversed phase column (Waters) using an acetonitrile (+0.2% acetic acid) gradient elution. […] The cone voltages are 30V for FTY720 and 5, and 20V for FTY720-P and 5-P. A standard curve is generated using pure compounds to allow for quantification; standard curves were linear from 50-1000 ng/ml with an R^2 of 0.98 or greater. […]

[1] = Blood chemistry of pDKO mice; assay type: in vivo; details: for Alkaline Phosphatase: Means ± SEM, n = 4, in U/L (unit assumed); for Albumin / Globulin / Total Protein: in g/dL (unit assumed); for Blood Urea Nitrogen / Ca^2+ / Cholesterol / P / Total Bilirubin: in mg/dL (unit assumed); for HCO^3−: in mmol/L (unit assumed); for Creatine: unit assumed
Method: In vivo studies. Experiments conducted in mice were performed in accordance with the Institutional Animal Care and Use Committee of University of California, Irvine following a power analysis conducted in consultation with the Biostatistics Shared Resource of Chao Family Comprehensive Cancer Center at UCI. Xenografts were produced by injecting 5 million cells subcutaneously in the flank of 10-16 week-old male or female NSG mice. Prostate isografts were produced in the same manner but in male 6-8 wk old C57BL/6 mice. Once tumors reached 100 mm^3, SH-BC-893 was administered by intraperitoneal (i.p.) injection or oral gavage as indicated. Tumor volume was calculated using the formula, volume (mm^3)=length [mm]×(width [mm])^2×0.52; BLI was measured using an IVIS imaging system (Xenogen). To generate pDKO mice on the C57BL6 background, Pten^flox mice (stock No. 0045597) and p53^flox mice (stock No. 008462) were obtained from the Jackson Laboratory and PB-Cre4 mice (strain #01XF5) were obtained from the NCI-Frederick Mouse Repository. Age-matched cohorts of pDKO males were generated by in vitro fertilization executed with the assistance of the Transgenic Mouse Facility at UC Irvine. Treatment was begun at 6-7 wks of age. […] Tumor samples were processed and imaged by the Pathology Research Services Core Facility at UC Irvine. Blood chemistry was analyzed by IDEXX BioResearch and complete blood counts were performed using a Hemavet hematology system.

[2] = 60 mg/kg, at sacrifice, in U/L (unit assumed)
[3] = 120 mg/kg, at sacrifice, in U/L (unit assumed)

CCCCCCCCc1ccc([C@H]2CCN[C@@H]2CO)cc1.Cl [Compound 5, (2S,3R)-2-(hydroxymethyl)-3-(4-octylphenyl)Pyrrolidinium chloride]
efficiency of phosphorylation in intact cells (SW620 cells): phosphorylated slightly more efficiently than FTY720
Glucose ([1]; 60 mg/kg, at sacrifice): 282 ± 24^
Alkaline Phosphatase ([1]; 60 mg/kg, at sacrifice): 77 ± 7.8
Creatine Phosphokinase [1, 2]: 5,340 ± 2366
Serum Glutamic Oxaloacetic Transaminase (Asp aminotransferase) [1, 2]: 640 ± 136
Serum Glutamic-Pyruvic Transaminase (Ala aminotransferase) [1, 2]: 78 ± 25
Albumin ([1]; 60 mg/kg, at sacrifice): 3 ± 0.2
Globulin ([1]; 60 mg/kg, at sacrifice): 2 ± 0.18
Total Protein ([1]; 60 mg/kg, at sacrifice): 5 ± 0.4
Blood Urea Nitrogen ([1]; 60 mg/kg, at sacrifice): 19 ± 1.1
Ca^2+ ([1]; 60 mg/kg, at sacrifice): 10 ± 0.7
Cholesterol ([1]; 60 mg/kg, at sacrifice): 134 ± 15.8
P ([1]; 60 mg/kg, at sacrifice): 11 ± 1.0
Total Bilirubin ([1]; 60 mg/kg, at sacrifice): 0.1 ± 0
HCO^3− ([1]; 60 mg/kg, at sacrifice): 20 ± 3.2
Creatine ([1]; 60 mg/kg, at sacrifice): < 0.2 mg/dL
Glucose ([1]; 120 mg/kg, at sacrifice): 307 ± 28^
Alkaline Phosphatase ([1]; 120 mg/kg, at sacrifice): 83 ± 6.2
Serum Glutamic Oxaloacetic Transaminase (Asp aminotransferase) [1, 3]: 907 ± 171
Serum Glutamic-Pyruvic Transaminase (Ala aminotransferase) [1, 3]: 91 ± 17.2
Albumin ([1]; 120 mg/kg, at sacrifice): 3 ± 0.1
Globulin ([1]; 120 mg/kg, at sacrifice): 2 ± 0.03
Total Protein ([1]; 120 mg/kg, at sacrifice): 6 ± 0.2
Blood Urea Nitrogen ([1]; 120 mg/kg, at sacrifice): 23 ± 1.5
Ca^2+ ([1]; 120 mg/kg, at sacrifice): 10 ± 0.1
Cholesterol ([1]; 120 mg/kg, at sacrifice): 107 ± 7.5
P ([1]; 120 mg/kg, at sacrifice): 13 ± 0.1
Total Bilirubin ([1]; 120 mg/kg, at sacrifice): 0.2 ± 0.03
HCO^3− ([1]; 120 mg/kg, at sacrifice): 17 ± 2.8
Creatine ([1]; 120 mg/kg, at sacrifice): < 0.2 mg/dL
toxicity to the liver or kidneys by blood chemistry at sacrifice ([1]; anti-neoplastic dose): not toxic to the liver or kidneys
